Patent US20200131156A1, “ARYLSULFONYLPYROLECARBOXAMIDE DERIVATIVES AS Kv3 POTASSIUM CHANNEL ACTIVATORS” (H. Lundbeck A/S, priority 2018, published 2020)

Tested on: fast-spiking interneurons (FSI)
Experiment: Hippocampal brain slice voltage clamp recording, outward K+ current from FSI
Format: cell-based, rat
Settings: 10 μM; for Outward current in presence of compound relative to baseline: step to 0 mV, baseline 100%
Experimental: Male Sprague Dawley rats (18˜24 days old) from Shanghai Laboratory Animal Center (Shanghai, China) were used for brain slice experiments. They were housed in groups of five in controlled conditions (temperature of 23±3° C., humidity of 40-70%, and 12:12 light-dark cycle with lights on at 5:00 am) and free access to food and water. All procedures were conducted in agreement with the guideline of Institutional Animal Care and Use Committee at ChemPartner. Ethical approval was obtained by the The Danish Animal Experimentation Inspectorate (journal no. 2014 15 0201 00339).
Animals were decapitated by a guillotine and their brains quickly removed and placed in ice-cold modified artificial cerebral spinal fluid (ACSF) containing (in mM): 110 sucrose, 60 NaCl, 3 KCl, 5 glucose, 28 NaHCO3, 1.25 NaH2PO4, 0.5 CaCl2 and 7 MgCl2, aerated with 95% O2/5% CO2. The brains were block-trimmed and glued onto the stage of a vibratome (VT1200S, Leica Microsystems Inc., Bannockburn, Ill., USA). Parasagittal hippocampal slices (300 μm) were cut and incubated in the regular carbogenated ACSF containing (in mM): 119 NaCl, 2.5 KCl, 1.2 Na2HPO4, 25 NaHCO3, 2.5 CaCl2, 1.3 MgCl2, 10 glucose at 35° C. for the first 60 min and then transferred to room temperature prior to recordings.
In the hippocampal CA1 pyramidal cell layer, fast-spiking interneurons (FSI) or pyramidal (PYR) cells were visualized using differential interference contrast-infrared (DIC-IR)-assisted microscopy and whole-cell patch clamp recordings performed using an Axon Multiclamp 700B amplifier (Molecular Devices, Union City, Calif.). FSI were selected based on non-pyramidal shape and multipolar dendrites. […]
Whole cell patch clamp recordings in voltage clamp mode were used to study the outward K^+ current from FSI or PYR cells. […] Outward K^+ current was recorded in the presence of 1 μM TTX and 10 μM DNQX in the ACSF to inhibit voltage-gated Na^+ channels and AMPA channels, respectively. […] For all recordings, the access resistance was monitored throughout the experiments. […]

Row | SMILES | Outward current in presence of compound relative to baseline [%] | Reversibility of compound-mediated increase in outward K+ current (Wash)
1 | Cc1ccc(S(=O)(=O)n2ccc(C(=O)NCc3ncco3)c2)cc1 [Compound 86, 1-(4-methylbenzene-1-sulfonyl)-N-[(1,3-oxazol-2-yl)methyl]-1H-pyrrole-3-carboxamide] | 121±2 | –
2 | Cc1cnc(CNC(=O)c2ccn(S(=O)(=O)c3ccc(F)cc3C)c2)cn1 [Compound 90, 1-(4-fluoro-2-methylbenzene-1-sulfonyl)-N-[(5-methylpyrazin-2-yl)methyl]-1H-pyrrole-3-carboxamide] | 144±4 | largely reversible
